Experiment [1] addresses T1, 20S proteasome in Jurkat cell lysates, C-L activity (Homo sapiens, UniProt P28072).
T1 sequence (P28072 35-239 limits assumed): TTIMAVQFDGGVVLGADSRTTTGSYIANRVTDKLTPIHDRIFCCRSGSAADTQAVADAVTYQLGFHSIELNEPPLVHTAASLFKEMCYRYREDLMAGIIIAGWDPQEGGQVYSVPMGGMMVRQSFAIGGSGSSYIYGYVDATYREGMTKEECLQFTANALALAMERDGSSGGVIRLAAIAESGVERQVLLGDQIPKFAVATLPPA
T1 sequence (Q99436 44-277 partner): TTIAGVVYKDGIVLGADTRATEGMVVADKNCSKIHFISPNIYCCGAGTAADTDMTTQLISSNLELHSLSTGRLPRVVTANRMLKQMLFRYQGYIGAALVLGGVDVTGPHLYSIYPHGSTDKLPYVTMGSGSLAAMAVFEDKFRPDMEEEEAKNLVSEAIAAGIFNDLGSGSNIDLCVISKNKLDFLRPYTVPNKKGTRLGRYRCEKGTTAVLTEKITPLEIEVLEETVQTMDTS
Briefly: Proteasome inhibition assay in cell lysates, Jurkat, C-L. Conditions: for inhibition at 10 µM: read-out: percentage of proteasome inhibition, C-L, cell lysates Jurkat, at 10 µM; for inhibition at 100 µM: read-out: percentage of proteasome inhibition, C-L, cell lysates Jurkat, at 100 µM.
Protocol: (§5) Cells were obtained from several cultured cell lines: Jurkat, K562, HT-29, and HCT116. Pellets with 20 × 10^6 cells were prepared and washed with cold sterile phosphate buffered saline (PBS), 1×, pH 7.4 (Gibco, Thermo Fisher Scientific, Paisley, UK). […] Cells were resuspended in buffer containing 50 mM TRIS-HCl pH 7.4 (Nzytech, Lisboa, Portugal), 5 mM MgCl2 (≥98% purity, Merck, Hamburg, Germany), 1 mM DTT (Merck, Hamburg, Germany), 2 mM ATP (≥98% purity, Enzo Life Sciences Inc., Farmingdale, NY, USA), and 250 mM saccharose (Merck, Hamburg, Germany). Glass beads (Merck, Hamburg, Germany) equivalent to the volume of the cell suspension were added, and the mixture was vortexed for 2 min at 4 °C. Beads and cell debris were removed using 5 min centrifugation at 1000× g and 4 °C, followed by 20 min of centrifugation at 10,000× g at 4 °C. Cell lysates containing proteasomes were resuspended in “activity buffer” [50 mM TRIS-HCl (pH 7.4), 5 mM MgCl2, 1 mM DTT, 2 mM ATP (≥98% purity, Enzo Life Sciences Inc., Farmingdale, NY, USA), and 500 µM EDTA (≥98% purity, Merck, Hamburg, Germany)]. Protein concentration was determined using the Pierce™ BCA protocol (Thermo Fisher Scientific, Rockford, IL, USA). […] DMSO was added in an equal volume as used for the untreated compounds as a way to assess/control its influence in the assay. Untreated cells were used as control. In each well of a 96-well plate, 25 µL of lysate were seeded in duplicate with 25 µL of the compound to test; in the control, 25 µL of activity buffer were added to the 25 µL of lysate. A blank (50 µL of activity buffer) was added to the wells in quadruplicate. Cell lysates, pre-treated or not with different concentrations of the test compounds, were incubated for 30 min at 37 °C. […] Stock solutions (10 mM) of each substrate were prepared in DMSO, diluted in activity buffer, and 50 µL were added to all wells (final concentration of each substrate = 100 µM), followed by an incubation at 37 °C for 60 min. Samples fluorescence was measured at an excitation wavelength of 360 nm and emission of 465 nm; the fluorescence measures were performed using the GloMax-Multi + Detection System (Promega Corp., Madison, WI, USA). Activity was evaluated in fluorescence units, after being converted to percentage of proteasome inhibition and, whenever possible, expressed as IC50 by plotting the inhibition data of each compound at different concentrations against the log of the concentration of the inhibitor, using the GraphPad Prism software version 7. At least eight different concentrations of the test compounds were used.

Experiment [2] concerns the target T2, isolated human 20S proteasome, C-L activity (Homo sapiens, UniProt P28072+Q99436).
T2 construct: human purified erythrocyte-derived 20S proteasome; purchased Enzo Life Sciences, Inc; host or cells: human erythrocytes (natural source)
The experiment is described as follows: Proteasome inhibition assay in isolated human 20S proteasomes (Proteasome-Glo), C-L activity. It is filed as biochemical. The settings on record: for inhibition at 10 µM: read-out: percentage of proteasome inhibition, C-L, isolated 20S proteasome; for percentage of proteasome inhibition, C-L, isolated human 20S proteasome: at 100 µM, Table 1 legend: bortezomib positive control 10 µM. An excerpt: (§1) In this assay, the peptide substrates are bound to aminoluciferin (Suc-LLVY-AML for CT-L activity, Z-nLPnLD-AML for C-L, and Z-LRR-AML for T-L), leading the cleavage of these substrates by the proteasome to the release of free aminoluciferin, which is the substrate of the buffer-contained luciferase.
(§2) To evaluate human purified erythrocyte-derived 20S proteasome inhibitory activity of the chosen compounds, the Proteasome-Glo™ 3-substrate system (Promega Corporation, Madison, WI, USA) was employed. The Proteasome-Glo™ reagents of the three proteolytic activities were prepared according to the manufacturer’s instructions, aliquoted, and stored at either −20 °C or 4 °C, avoiding freezing–thaw cycles. […] The purified 20S proteasome (Enzo Life Sciences, Inc., Farmingdale, NY, USA) was diluted in HEPES buffer 10 mM, pH 7.4, to a concentration experimentally adjusted to the signal/noise ratio obtained with each particular lot of Proteasome-Glo™ reagent, in order to have a good compromise between sensitivity and linear response. […] All assays were performed in white-walled multiwell plates (Thermo Scientific™ Sterilin™ White Microtiter™ plates, Thermo Fisher Scientific, Paisley, UK) in duplicates. The proteasome solution (25 μL) was added to each well first, then the diluted solutions of the assayed compounds (25 μL), and lastly the Proteasome-Glo™ Reagent (50 μL). […] Reagents were added to the plate well on ice, and the plate was then transferred to the plate luminometer (SpectraMax®, Molecular Devices, LLC, San Jose, CA, USA) set at 37 °C, gently mixed for 30 s, and the measurements were immediately started in kinetic mode, with data collected every 5 min for at least 60 min.
(§3) All compounds were dissolved in DMSO at a concentration of 10 mM and stored at −20 °C or 4 °C. Solutions of the test compounds were prepared at their adequate dilutions in 10 mM HEPES buffer pH 7.6 before each experiment.
(§4) To calculate the proteasome activity over time, the value of mean relative luminescence units (RLU) of blank wells at each respective time point was subtracted, and then the ratio between mean RLU of the sample and mean RLU of the positive control wells was calculated for each time point and expressed as percentage.

For experiment [3], the target named is T3, 20S proteasome in HCT116 cell lysates, C-L activity (Homo sapiens, UniProt P28072).
T3 sequence (P28072 35-239 limits assumed): T1 sequence (P28072 35-239 limits assumed)
T3 sequence (Q99436 44-277 partner): T1 sequence (Q99436 44-277 partner)
Briefly: Proteasome inhibition assay in cell lysates, HCT116, C-L. Conditions: for percentage of proteasome inhibition, C-L, cell lysates HCT116: at 100 µM; for percentage of proteasome inhibition, C-L, cell lysates HCT116 / inhibition at 100 µM: Table 2 legend: bortezomib 10 µM, NI = No inhibition; for inhibition at 100 µM: read-out: percentage of proteasome inhibition, C-L, cell lysates HCT116, at 100 µM; for inhibition at 10 µM: read-out: percentage of proteasome inhibition, C-L, cell lysates HCT-116, at 10 µM.
Protocol: as §5

In experiment [4] the target is T4, 20S proteasome in HT-29 cell lysates, CT-L activity (Homo sapiens, UniProt P28074).
T4 sequence (P28074 60-263): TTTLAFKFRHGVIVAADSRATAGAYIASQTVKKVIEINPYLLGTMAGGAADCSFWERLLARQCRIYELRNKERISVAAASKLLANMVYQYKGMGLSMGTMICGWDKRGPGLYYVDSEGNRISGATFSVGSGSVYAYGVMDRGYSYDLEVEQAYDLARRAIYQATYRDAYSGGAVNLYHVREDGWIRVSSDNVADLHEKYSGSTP
T4 sequence (P20618 29-241 partner): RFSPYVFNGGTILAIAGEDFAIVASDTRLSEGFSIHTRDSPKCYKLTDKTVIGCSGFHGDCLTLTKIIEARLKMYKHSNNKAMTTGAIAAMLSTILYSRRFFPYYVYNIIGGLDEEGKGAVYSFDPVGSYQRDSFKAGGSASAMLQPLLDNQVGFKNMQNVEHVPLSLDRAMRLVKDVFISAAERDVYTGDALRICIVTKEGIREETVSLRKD
The experiment is described as follows: Proteasome inhibition assay in cell lysates, HT-29, CT-L. The settings on record: for inhibition at 10 µM: read-out: percentage of proteasome inhibition, CT-L, cell lysates HT-29, at 10 µM; for inhibition at 100 µM: read-out: percentage of proteasome inhibition, CT-L, cell lysates HT-29, at 100 µM.
Protocol: as §5

Experiment [5] addresses T5, isolated human 20S proteasome, T-L activity (Homo sapiens, UniProt P49720+Q99436).
T5 construct: human purified erythrocyte-derived 20S proteasome; purchased Enzo Life Sciences, Inc; host or cells: human erythrocytes (natural source)
The experiment is described as follows: Proteasome inhibition assay in isolated human 20S proteasomes (Proteasome-Glo), T-L activity. Type of experiment: biochemical. The settings on record: for inhibition at 10 µM: read-out: percentage of proteasome inhibition, T-L, isolated 20S proteasome; for percentage of proteasome inhibition, T-L, isolated human 20S proteasome: at 100 µM, Table 1 legend: bortezomib positive control 10 µM; for pIC50: mean ± SD.
Source text: as §1, §2, §3, §4

[6] abbreviates: at 100 µM, Table 2 legend: bortezomib 10 µM.
[7] abbreviates: Table 2 legend: bortezomib 10 µM.

Structures are written as SMILES. pIC50: −log10 of the molar value. Several values for one entry are separate records, joined by “and”; a condition that tells them apart may be missing. Equal entries are not always repeated.

Broadly, the inhibition is the drop in the measured response relative to a control, in per cent. Usually pIC50 stands for the IC50 on a negative log10 scale, so that one unit is a factor of ten. High values mean a small IC50, low ones a large IC50.

Take `CC(C)C[C@H](NC(=O)[C@H](Cc1ccccc1)NC(=O)c1cnccn1)B(O)O` [Bortezomib, bortezomib, reference compound]: the “percentage of proteasome inhibition, C-L, cell lysates Jurkat” value in experiment [1] (at 10 µM) was 92.00%; in experiment [1] (setting [6]), 94.22% and 94%. The inhibition at 10 µM is 33.8% in experiment [2] and 3.2% in experiment [5]. In addition, the “percentage of proteasome inhibition, C-L, isolated human 20S proteasome” value in experiment [2] was 92.80% and 93%. Besides, the “percentage of proteasome inhibition, C-L, cell lysates HCT-116” value in experiment [3] (at 10 µM) worked out at 94.21%. For the same compound, the “percentage of proteasome inhibition, C-L, cell lysates HCT116” value in experiment [3] is 99%. Also, the “percentage of proteasome inhibition, CT-L, cell lysates HT-29” value was 97.99% in experiment [4] (at 10 µM); 99.37% and 99% in experiment [4] (setting [6]). Further, the “percentage of proteasome inhibition, T-L, isolated human 20S proteasome” value (“percentage of proteasome inhibition, T-L” for short) in experiment [5] is 33.58% and 34%.

For the compound `Cc1ccc2ccccc2c1CSc1ncnc2c1ncn2C1OC(CO)C(O)C1O` (centres unmarked) [Compound 1], the “percentage of proteasome inhibition, C-L, cell lysates Jurkat” value in experiment [1] (setting [6]) was found to be 19%. The inhibition at 10 µM in experiment [1] was 2.27%; in experiment [2], 0%; in experiment [3], 0%; in experiment [4] it was 0%; in experiment [5], 4.43%. In addition, the inhibition at 100 µM in experiment [1] (setting [7]) was found to be 19.4%; in experiment [3], 71.2%; in experiment [4] (setting [7]), 62.1%. In experiment [2], the “percentage of proteasome inhibition, C-L, isolated human 20S proteasome” value is 54.47% and 55%. The negative logarithm of the IC50 (pIC50) in experiment [3] is 4.12; in experiment [4] it was 4.04. The “percentage of proteasome inhibition, C-L, cell lysates HCT116” value in experiment [3] was determined as 71%. Also, the “percentage of proteasome inhibition, CT-L, cell lysates HT-29” value in experiment [4] (setting [6]) was determined as 62%. Besides, in experiment [5], the “percentage of proteasome inhibition, T-L” value was 51.65% and 52%.

As to `O=C1c2ccccc2C(=O)c2c(Nc3ccc(S(=O)(=O)N(CCO)CCO)cc3)ccc(O)c21` [Compound 2], the pIC50 in experiment [1] was 4.37; in experiment [3], 4.36; in experiment [4], 4.13; in experiment [5], 4.59. For the same compound, the “percentage of proteasome inhibition, C-L, cell lysates Jurkat” value in experiment [1] (setting [6]) was determined as 74%. The inhibition at 10 µM was 26.9% in experiment [1]; 90.8% in experiment [2]; 11.1% in experiment [3]; 2.11% in experiment [4]; 0% in experiment [5]. Also, the inhibition at 100 µM in experiment [1] (setting [7]) was determined as 73.5%; in experiment [3] it was 74.1%; in experiment [4] (setting [7]), 62.2%. Besides, the “percentage of proteasome inhibition, C-L, isolated human 20S proteasome” value in experiment [2] was 97.86% and 98%. Further, the “percentage of proteasome inhibition, C-L, cell lysates HCT116” value in experiment [3] stood at 74%. Also, the “percentage of proteasome inhibition, CT-L, cell lysates HT-29” value in experiment [4] (setting [6]) amounted to 62%. Besides, the “percentage of proteasome inhibition, T-L” value in experiment [5] worked out at 97.00%.

In the case of `Cc1ccc(/C(=N/NS(=O)(=O)c2ccc([N+](=O)[O-])cc2)Sc2cc(Cl)c(C)cc2S(N)(=O)=O)cc1` [Compound 3], the “percentage of proteasome inhibition, C-L, cell lysates Jurkat” value in experiment [1] (setting [6]) was 25%. For the same compound, the inhibition at 10 µM in experiment [1] came out at 0%; in experiment [2] it was 9.9%; in experiment [3], 0%; in experiment [4], 0%; in experiment [5], 8.8%. Further, the inhibition at 100 µM in experiment [1] (setting [7]) came out at 25.4%; in experiment [3], 0%; in experiment [4] (setting [7]) it was 31.4%. Further, in experiment [2], the “percentage of proteasome inhibition, C-L, isolated human 20S proteasome” value was 88.38% and 88%. Moreover, the “percentage of proteasome inhibition, CT-L, cell lysates HT-29” value in experiment [4] (setting [6]) stood at 31%. The “percentage of proteasome inhibition, T-L” value in experiment [5] is 95.30% and 95%. The compound further showed a pIC50 in experiment [5] of 4.56.

Consider `C#CCCN1CCN(c2ccc(-n3c(=O)ccc4cnc5ccc(-c6ccc(N)nc6)cc5c43)cc2C(F)(F)F)CC1` [Compound 4, 9-(6-Aminopyridin-3-yl)-1-(4-(4-(but-3-yn-1-yl)piperazin-1-yl)-3-(trifluoromethyl)phenyl)benzo[h][1,6]naphthyridin-2(1H)-one], for which the pIC50 is 4.57 in experiment [1], 4.54 in experiment [3], 4.50 in experiment [4] and 4.32 in experiment [5]. Also, the “percentage of proteasome inhibition, C-L, cell lysates Jurkat” value in experiment [1] (setting [6]) came to 99%. The inhibition at 10 µM in experiment [1] was determined as 8.16%; in experiment [2] it was 5.8%; in experiment [3], 69.2%; in experiment [4] it was 10.1%; in experiment [5], 0%. Further, the inhibition at 100 µM turned out to be 98.9% in experiment [1] (setting [7]), 90.1% in experiment [3] and 97.9% in experiment [4] (setting [7]). In addition, in experiment [2], the “percentage of proteasome inhibition, C-L, isolated human 20S proteasome” value was 77.65% and 78%. The “percentage of proteasome inhibition, C-L, cell lysates HCT116” value in experiment [3] amounted to 90%. In addition, in experiment [4] (setting [6]), the “percentage of proteasome inhibition, CT-L, cell lysates HT-29” value worked out at 98%. In addition, the “percentage of proteasome inhibition, T-L” value in experiment [5] was 73.95% and 74%.

Take `CC(C)c1nc(CN(C)C(=O)N[C@@H](CCN2CCOCC2)C(=O)N[C@H](CC[C@H](Cc2ccccc2)NC(=O)OCc2cncs2)Cc2ccccc2)cs1` [Compound 5, cobicistat, reference compound]: the “percentage of proteasome inhibition, C-L, cell lysates Jurkat” value in experiment [1] (setting [6]) amounted to 36%. Also, the inhibition at 10 µM in experiment [1] came to 0%; in experiment [2] it was 0%; in experiment [3], 0%; in experiment [4], 0%; in experiment [5], 5.37%. Also, the results for the inhibition at 100 µM in experiment [1] (setting [7]), in experiment [3] and in experiment [4] (setting [7]) were 36.2%, 28.1% and 81.2%, respectively. The “percentage of proteasome inhibition, C-L, isolated human 20S proteasome” value in experiment [2] was 33.57% and 34%. In addition, the “percentage of proteasome inhibition, C-L, cell lysates HCT116” value in experiment [3] was 28%. Moreover, the pIC50 in experiment [4] was 4.07. The “percentage of proteasome inhibition, CT-L, cell lysates HT-29” value in experiment [4] (setting [6]) was 81%. Besides, the “percentage of proteasome inhibition, T-L” value in experiment [5] was 5.35% and 5%.
